Assay results taken from patent publication US5008252A, “Process for inhibiting herpes simplex virus-specified thymidine kinase” (The University of North Carolina at Chapel Hill, priority 1987, dated 1991).
Values joined by “and” are separate entries in the source; they are usually repeats but may differ in a detail not shown here. Identical values can stand only once.

Experiments:
[1] = tested on: HSV-1 (strain KOS)-infected HeLa BU cells; experiment: Virus yield assay; assay type: cell-based
Protocol: (§1) Cell and virus growth inhibition. Cell growth inhibition and the virus yield assay were performed in accordance with the protocol described by Cheng, Y.-C., Grill, S.P., Ruth, J. and Bergstrom, D. E. (Antimicrob. Agents Chemother. 18:957-961 (1980)) with the exceptions that all studies were done using 5% dialyzed fetal bovine serum; the multiplicity of infection was 3 PFU/cell and Vero cells were used instead of CV-1 cells for titration in the virus yield assays.

[2] = target: HSV-1 (KOS) dThd kinase in infected HeLa BU cells (Human alphaherpesvirus 1 strain KOS, UniProt P17402); experiment: Intracellular dThd kinase activity ([14C]dThd phosphorylation); assay type: cell-based, HSV-1 (strain KOS)
Protocol: (§2) Intracellular dThd kinase activity. HeLa S3 or HeLa BU cells (1.5×10^6 /ml) were mock infected or infected with HSV-1 or HSV-2at 3 PFU/cell and incubated at 37° C. for a 1 h adsorption period. The medium was then removed, and the cells were washed with growth medium and resuspended at a cell density of 5×10^5 cells/ml in RPMI 1640 medium supplemented with kanamycin (100 μg/ml) and 5% dialyzed fetal bovine serum. At 9 h post-HSV infection, [14C]dThd (0.16 μCi/ml; 1 μM dThd) and different amounts of 5'-Et-dThd were added to the medium depending on experimental conditions. At the end of the labeling period (1 h), the cells were pelleted by centrifugation, washed with phosphate-buffered-saline (PBS) and resuspended in a small volume of PBS. Aliquots were then pipetted directly onto DE81 discs which were immediately washed in 100% EtOH. The DE81 discs were washed two additional times in 100% EtOH, and then radioactivity associated with the discs was measured by scintillation counting in 5 ml of aqueous counting fluid. In this manner, total intracellular dThd kinase activity was determined from the sum of radioactive acid soluble dThd nucleotides plus the acid insoluble dTMP associated with DNA, both precipitated directly on the DE81 discs.

[3] = target: HSV-1 (strain KOS) dThd kinase-associated dTMP kinase (Human alphaherpesvirus 1 strain KOS, UniProt P17402); experiment: dTMP (thymidylate) kinase assay, crude extracts; assay type: biochemical; conditions: HSV-1 KOS
Protocol: The thymidylate kinase and synthase assays were performed according to known procedures (see, Cheng, Y.-C. & Prusoff, W. H. (1974) Anal. Biochem. 60:545-550; Roberts, D. (1966) Biochemistry 5:3546-3548; Dolnick, B. J. & Cheng, Y. C. (1977) J. Biol. Chem. 252:7697-7703). dThd phosphorylase activity was determined by monitoring conversion of [^14 C]dThd to [14 C] thymine using high performance liquid chromatography (HPLC). Briefly, after a 30 min incubation of enzyme extract with radiolabeled dThd at 37° C., the reaction was stopped by addition of 25% trichloroacetic acid. After neutralization and centrifugation, the supernatants were loaded on to an Alltech Lichrosorb RP-18 column, and the column was eluted at a rate of 1 ml/min with 5 mM KH2 PO4 (pH 3.5)--10% methanol. Fractions of 1 ml were collected and radioactivity associated with dThd and thymine (as previously determined by retention times of authentic markers measured by their absorbance at 265 nm) was measured by scintillation counting. For evaluation of whether 5'-Et-dThd could serve substrate for dThd phosphorylase, reactions were carried out as described as above, except that 5'-Et-dThd was used instead of [^14 C]dThd; metabolites were then analyzed by HPLC as described above.

mammalian cell growth = experiment: Cell growth inhibition; assay type: cell-based
Protocol: as §1

[4] = target: HSV-1 SC16 dThd kinase in infected HeLa BU cells (Human herpesvirus 1, UniProt P06479); experiment: Intracellular dThd kinase activity ([14C]dThd phosphorylation); assay type: cell-based, HSV-1 (strain SC16); conditions: intracellular [14C]dThd phosphorylation
Protocol: as §2

HSV-1 (KOS) dThd kinase = HSV-1 (KOS) dThd kinase (Human alphaherpesvirus 1 strain KOS, UniProt P17402); experiment: dThd kinase assay in vitro; assay type: biochemical, HSV-1 (strain KOS)
From the text: (§3) Enzyme purification, enzyme assays, IC50 and Ki determinations. The cellular cytosolic dThd kinase used to determine the Ki values was isolated from KB6B cells. The HSV-1 and HSV-2dThd kinases were extracted from dThd kinase-deficient HeLa BU cells infected with HSV-1 (strain KOS) and HSV-2(strain 333), respectively. All of the dThd kinases were purified using affinity column chromatography procedures described by Lee, L. S. and Cheng, Y.-C. (J. Biol. Chem. 251:2600-2604 (1976)). The dThd kinase assay used was the same as that described by Cheng, Y.-C. & Ostrander, M. (J. Biol. Chem. 251:2605-2610 (1976)). Incubations were conducted at 37° C. for 60 min and the Ki and 50% […] concentration (IC50) values were determined as described by Cheng, Y.-C. and Prusoff, W. H. (Biochem. Pharmacol. 22:3099-3108 (1976)).

[5] = target: HSV-1 B3 dThd kinase (BVDU resistant variant) (Human alphaherpesvirus 1 strain SC16, UniProt P06479); experiment: dThd kinase assay in vitro, enzyme extracts; assay type: biochemical, HSV-1 (strain B3); conditions: enzyme extracts of infected HeLa BU cells, 100 μM dThd
Protocol: Virus stocks. The viruses used were HSV-1 (strains KOS, SC16, B3 and Tr7) and HSV-2(strain 333). dThd kinase mutants of HSV (SC16), B3 and Tr7, were isolated in the presence of (E)-5-(2-bromovinyl)-2'-deoxyuridine (BVDU) at 10 μg/ml and ACV at 1 μg/ml, respectively (Darby, G., Field, H.J. & Salisbury, S. A. (1982) Nature (London) 289:81-83; Field, H.J & Neden J. (1982) Antiviral Res. 2:243254).
as §3

[6] = target: HSV-1 B3 dThd kinase in infected HeLa BU cells (Human alphaherpesvirus 1 strain SC16, UniProt P06479); experiment: Intracellular dThd kinase activity ([14C]dThd phosphorylation); assay type: cell-based, HSV-1 (strain B3); conditions: intracellular [14C]dThd phosphorylation
Protocol: as §2

## 5'-ethynylthymidine [5'-Et-dThd]
[1]; 0.2 μM aphidicolin with varying concentrations of 5'-Et-dThd
  effect on the antiviral effect of aphidicolin: significantly enhanced
[1]; 5'-Et-dThd by itself
  effect on virus yield: no effect
[1]; Table II, drug (μM as in row; None = 5'-Et-dThd alone) plus 2.5 μM 5'-Et-dThd
  % PFU with a 5'-Et-dThd conc. of 2.5 μM: 97%
[1]; Table II, drug (μM as in row; None = 5'-Et-dThd alone) plus 25 μM 5'-Et-dThd
  % PFU with a 5'-Et-dThd conc. of 25 μM: 96%
[1]; Table II, drug (μM as in row; None = 5'-Et-dThd alone) plus 100 μM 5'-Et-dThd
  % PFU with a 5'-Et-dThd conc. of 100 μM: 99%
[1]; Table III, aphidicolin 0.2 μM (None = 5'-Et-dThd alone) plus 5 μM 5'-Et-dThd
  %PFU with a 5'-Et-dThd conc. of 5 μM: 100%
[1]; Table III, aphidicolin 0.2 μM (None = 5'-Et-dThd alone) plus 20 μM 5'-Et-dThd
  %PFU with a 5'-Et-dThd conc. of 20 μM: 100%
[1]; Table III, aphidicolin 0.2 μM (None = 5'-Et-dThd alone) plus 100 μM 5'-Et-dThd
  % PFU with a 5'-Et-dThd conc. of 100 μM: 100%
[2]; 25 μM, HSV-1-infected HeLa BU, 9 h post infection, 1 h labeling
  dThd phosphorylating activity, % of untreated control: 12.5%
[2]; 100 μM, HSV-1-infected HeLa BU cells, 9 h post infection
  inhibition of dThd kinase-mediated [14C]dThd phosphorylation: 97%
[2]; HSV-1 KOS, intracellular [14C]dThd phosphorylation, HeLa BU cells
  IC50: 3 µM
[3]; 25 μM dTMP substrate
  IC50 of virus-associated dTMP kinase: 0.3 µM
[3]; 100 μM dTMP substrate
  IC50 of virus-associated dTMP kinase: 0.8 µM
Mammalian cell growth
  inhibition of mammalian cell growth: nor does the analog inhibit mammalian cell growth
[4]
  IC50: 5 µM
HSV-1 (KOS) dThd kinase; 10 μM 5'-Et-dThd, purified enzyme, 100 μM [14C]dThd
  inhibition of dThd kinase activity: 50%
HSV-1 (KOS) dThd kinase; HSV-1 KOS, affinity column-purified dThd kinase, ± standard deviation
  Ki: 0.09 µM
HSV-1 (KOS) dThd kinase; HSV-1 KOS, enzyme extracts of infected HeLa BU cells, 100 μM dThd
  IC50: 6 µM
HSV-1 (KOS) dThd kinase; with respect to dThd
  type of inhibition (kinetic studies): competitive inhibitor
[5]
  IC50: < 10 µM and 7 µM
[6]
  IC50: < 10 µM and 6 µM
